Data as given in patent publication US20170035049A1, “BIOCIDAL PRODUCTS” (SALVECO, priority 2014, published 2017).

Assay: Ultimate aerobic biodegradability in aqueous medium (OECD 301 A)
Conditions: on the fourteenth day
Procedure: This test is an evaluation in an aqueous medium of the ultimate aerobic biodegradability of a sample of the concentrated formulation according to the invention. This test is performed according to the provisions of the OECD 301 A method using a sample containing a dissolved organic carbon content of 10 mg/l (DOC for dissolved organic carbon). The evolution of the disappearance of dissolved organic carbon is followed during a period of 28 days in the “Concentrated disinfection” test at 10 mg/l of DOC. The physical-chemical analysis is performed according to the ASTM […] standard. The attached FIG. 1 represents the resulting curves of degradation of the organic carbon dissolved after 28 days. The reference substance corresponds to sodium acetate.

SMILES: CC(=O)[O-].[Na+] [sodium acetate]
- percentage of degradation of the reference substance: 99%
